According to US6355799B1, “Substituted benzene compounds, process for their preparation, and herbicidal and defoliant compositions containing them” (ISK Americas Incorporated, priority 1997, dated 2002):

Tests used:
Format in all cases: in vivo
[1] = system: green foxtail (Setaria viridis, SETVI); test: Pre-emerge test, greenhouse herbicide activity screening; settings: pre-emerge, rated 14 days after application, 0 = no damage, 100 = complete death
How it was run: (§1)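 Fourteen days after spraying, crop and weed injury was graded visually from 0, no effect, to 100, every plant dead. Test substances were dissolved in acetone and applied at 15–1000 g ai/ha with a flat-fan nozzle. Application was either pre-emergence, one day after sowing, or post-emergence at the 2–3 leaf stage.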

[2] = system: sicklepod (Cassia obtusifolia, CASOB); test: as above; settings: pre-emerge, rated 14 days after application, 0 = no damage, 100 = complete death
How it was run: as §1

[3] = system: johnsongrass (Sorghum halepense, SORHA); test: as above; settings: pre-emerge, rated 14 days after application, 0 = no damage, 100 = complete death
How it was run: as §1

[4] = system: barnyardgrass (Echinochloa crus-galli, ECHCG); test: as above; settings: pre-emerge, rated 14 days after application, 0 = no damage, 100 = complete death
How it was run: as §1

[5] = system: common ragweed (Ambrosia artemisizfolia L., AMBEL); test: as above; settings: pre-emerge, rated 14 days after application, 0 = no damage, 100 = complete death
How it was run: as §1

[6] = system: ivyleaf morningglory (Ipomoea hederacea, IPOHE); test: as above; settings: pre-emerge, rated 14 days after application, 0 = no damage, 100 = complete death
How it was run: as §1

[7] = system: velvetleaf (Abutilon theophrasti, ABUTH); test: as above; settings: pre-emerge, rated 14 days after application, 0 = no damage, 100 = complete death
How it was run: as §1

[8] = system: large crabgrass (Digitaria sanguinalis, DIGSA); test: as above; settings: pre-emerge, rated 14 days after application, 0 = no damage, 100 = complete death
How it was run: as §1

[9] = system: lambsquarters (Chenopodium album, CHEAL); test: as above; settings: pre-emerge, rated 14 days after application, 0 = no damage, 100 = complete death
How it was run: as §1

[10] = system: upland rice (Oryza sp., var. Tebonnet, RICE); test: Pre-emerge test, crop safety; settings: pre-emerge, rated 14 days after application, 0 = no damage, 100 = complete death
How it was run: (§2)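 Herbicidal damage is scored 0 (none) to 100 (complete plant death) two weeks after a simulated field spray. Rates span 15–1000 g ai/ha, delivered in acetone at 187 l/ha. For post-emergence treatments, plants have 2–3 leaves and the spray carries 0.25% v/v non-ionic surfactant.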

[11] = system: field corn (Zea mays L., var. Dekalb 535, CORN); test: Pre-emerge test, crop safety; settings: pre-emerge, rated 14 days after application, 0 = no damage, 100 = complete death
How it was run: as §2

[12] = system: redroot pigweed (Amaranthus retroflexus, AMARE); test: Pre-emerge test, greenhouse herbicide activity screening; settings: pre-emerge, rated 14 days after application, 0 = no damage, 100 = complete death
How it was run: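 Compounds in acetone were track-sprayed at 15-1000 g ai/ha (187 l/ha) on sandy loam pots: pre-emerge one day after seeding, post-emerge at 2-3 leaf stage with 0.25% v/v non-ionic surfactant. Phytotoxicity was rated 14 days later on a 0 (no damage) to 100 (complete death) scale.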

[13] = system: green foxtail (Setaria viridis, SETVI); test: Post-emerge test, greenhouse herbicide activity screening; settings: phytotoxicity rating 0-100 (0 no damage, 100 complete death), 14 days after application
How it was run: (§3)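 Compounds in acetone were track-sprayed at 187 l/ha, 15–1000 g ai/ha, onto sandy loam pots. Pre-emerge seeds were sown one day before spraying, with surface watering afterwards. Post-emerge plants were at the 2–3 leaf stage and sprayed with 0.25% v/v non-ionic surfactant. Injury was rated 0–100 at 14 days.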

[14] = system: sicklepod (Cassia obtusifolia, CASOB); test: as above; settings: phytotoxicity rating 0-100 (0 no damage, 100 complete death), 14 days after application
How it was run: as §3

[15] = system: johnsongrass (Sorghum halepense, SORHA); test: as above; settings: phytotoxicity rating 0-100 (0 no damage, 100 complete death), 14 days after application
How it was run: as §3

[16] = system: barnyardgrass (Echinochloa crus-galli, ECHCG); test: as above; settings: phytotoxicity rating 0-100 (0 no damage, 100 complete death), 14 days after application
How it was run: as §3

[17] = system: common ragweed (Ambrosia artemisizfolia L., AMBEL); test: as above; settings: phytotoxicity rating 0-100 (0 no damage, 100 complete death), 14 days after application
How it was run: as §3

[18] = system: ivyleaf morningglory (Ipomoea hederacea, IPOHE); test: as above; settings: phytotoxicity rating 0-100 (0 no damage, 100 complete death), 14 days after application
How it was run: as §3

[19] = system: velvetleaf (Abutilon theophrasti, ABUTH); test: as above; settings: phytotoxicity rating 0-100 (0 no damage, 100 complete death), 14 days after application
How it was run: as §3

[20] = system: large crabgrass (Digitaria sanguinalis, DIGSA); test: as above; settings: phytotoxicity rating 0-100 (0 no damage, 100 complete death), 14 days after application
How it was run: as §3

[21] = system: redroot pigweed (Amaranthus retroflexus, AMARE); test: as above; settings: phytotoxicity rating 0-100 (0 no damage, 100 complete death), 14 days after application
How it was run: as §3

[22] = system: lambsquarters (Chenopodium album, CHEAL); test: as above; settings: phytotoxicity rating 0-100 (0 no damage, 100 complete death), 14 days after application
How it was run: as §3

[23] = system: upland rice (Oryza sp., var. Tebonnet, RICE); test: Post-emerge test, crop safety; settings: phytotoxicity rating 0-100 (0 no damage, 100 complete death), 14 days after application
How it was run: as §1

[24] = system: field corn (Zea mays L., var. Dekalb 535, CORN); test: Post-emerge test, crop safety; settings: phytotoxicity rating 0-100 (0 no damage, 100 complete death), 14 days after application
How it was run: as §1

**Q.** Which “Pre-emerge Herbicidal Activity SETVI (phytotoxicity rating, scale 0-100)” value ([1]; 63 g ai/ha) does the source give for `CCCc1ccc(C(=O)N(C(=O)c2ccc(CCC)cc2)c2c(OC)c(Cl)cc(F)c2-n2c(=O)cc(C(F)(F)F)n(C)c2=O)cc1` [2-29] here?
**A.** Its value is 100.

**Q.** And the “Pre-emerge Herbicidal Activity SETVI (phytotoxicity rating, scale 0-100)” value ([1]; 250 g ai/ha)?
**A.** The value was 100.

**Q.** And the “Pre-emerge Herbicidal Activity CASOB (phytotoxicity rating, scale 0-100)” value ([2]; 63 g ai/ha)?
**A.** The value was 60.

**Q.** And the “Pre-emerge Herbicidal Activity CASOB (phytotoxicity rating, scale 0-100)” value ([2]; 250 g ai/ha)?
**A.** Its value is 100.

**Q.** What about the “Pre-emerge Herbicidal Activity SORHA (phytotoxicity rating, scale 0-100)” value ([3]; 63 g ai/ha) of the same molecule?
**A.** Its value is 0.

**Q.** What about the “Pre-emerge Herbicidal Activity SORHA (phytotoxicity rating, scale 0-100)” value ([3]; 250 g ai/ha) of the same molecule?
**A.** Its value is 80.

**Q.** What about the “Pre-emerge Herbicidal Activity ECHCG (phytotoxicity rating, scale 0-100)” value ([4]; 63 g ai/ha) of the same molecule?
**A.** The value was 0.

**Q.** And the “Pre-emerge Herbicidal Activity ECHCG (phytotoxicity rating, scale 0-100)” value ([4]; 250 g ai/ha)?
**A.** The value was 50.

**Q.** And the “Pre-emerge Herbicidal Activity AMBEL (phytotoxicity rating, scale 0-100)” value ([5]; 63 g ai/ha)?
**A.** The value was 0.

**Q.** What about the “Pre-emerge Herbicidal Activity AMBEL (phytotoxicity rating, scale 0-100)” value ([5]; 250 g ai/ha) of the same molecule?
**A.** Its value is 60.

**Q.** And the “Pre-emerge Herbicidal Activity IPOHE (phytotoxicity rating, scale 0-100)” value ([6]; 63 g ai/ha)?
**A.** Its value is 30.

**Q.** And the “Pre-emerge Herbicidal Activity IPOHE (phytotoxicity rating, scale 0-100)” value ([6]; 250 g ai/ha)?
**A.** The value was 100.

**Q.** What about the “Pre-emerge Herbicidal Activity ABUTH (phytotoxicity rating, scale 0-100)” value ([7]; 63 g ai/ha) of the same molecule?
**A.** The value was 100.

**Q.** What about the “Pre-emerge Herbicidal Activity ABUTH (phytotoxicity rating, scale 0-100)” value ([7]; 250 g ai/ha) of the same molecule?
**A.** Its value is 100.

**Q.** What about the “Pre-emerge Herbicidal Activity DIGSA (phytotoxicity rating, scale 0-100)” value ([8]; 63 g ai/ha) of the same molecule?
**A.** The value was 60.

**Q.** What about the “Pre-emerge Herbicidal Activity DIGSA (phytotoxicity rating, scale 0-100)” value ([8]; 250 g ai/ha) of the same molecule?
**A.** Its value is 90.

**Q.** What about the “Pre-emerge Herbicidal Activity CHEAL (phytotoxicity rating, scale 0-100)” value ([9]; 63 g ai/ha) of the same molecule?
**A.** The value was 100.

**Q.** And the “Pre-emerge Herbicidal Activity CHEAL (phytotoxicity rating, scale 0-100)” value ([9]; 250 g ai/ha)?
**A.** Its value is 100.

**Q.** And the “Pre-emerge crop damage RICE (phytotoxicity rating, scale 0-100)” value ([10]; 63 g ai/ha)?
**A.** Its value is 40.

**Q.** What about the “Pre-emerge crop damage RICE (phytotoxicity rating, scale 0-100)” value ([10]; 250 g ai/ha) of the same molecule?
**A.** The value was 65.

**Q.** What about the “Pre-emerge crop damage CORN (phytotoxicity rating, scale 0-100)” value ([11]; 63 g ai/ha) of the same molecule?
**A.** Its value is 0.

**Q.** And the “Pre-emerge crop damage CORN (phytotoxicity rating, scale 0-100)” value ([11]; 250 g ai/ha)?
**A.** The value was 15.

**Q.** And the “Pre-emerge Herbicidal Activity AMARE (phytotoxicity rating, scale 0-100)” value ([12]; 63 g ai/ha)?
**A.** Its value is 100.

**Q.** What about the “Pre-emerge Herbicidal Activity AMARE (phytotoxicity rating, scale 0-100)” value ([12]; 250 g ai/ha) of the same molecule?
**A.** Its value is 100.

**Q.** What about the “Post-emerge Herbicidal Activity SETVI” value ([13]; 63 g ai/ha) of the same molecule?
**A.** The value was 20.

**Q.** What about the “Post-emerge Herbicidal Activity SETVI” value ([13]; 250 g ai/ha) of the same molecule?
**A.** Its value is 50.

**Q.** What about the “Post-emerge Herbicidal Activity CASOB” value ([14]; 63 g ai/ha) of the same molecule?
**A.** The value was 20.

**Q.** And the “Post-emerge Herbicidal Activity CASOB” value ([14]; 250 g ai/ha)?
**A.** Its value is 40.

**Q.** What about the “Post-emerge Herbicidal Activity SORHA” value ([15]; 63 g ai/ha) of the same molecule?
**A.** The value was 0.

**Q.** And the “Post-emerge Herbicidal Activity SORHA” value ([15]; 250 g ai/ha)?
**A.** The value was 10.

**Q.** What about the “Post-emerge Herbicidal Activity ECHCG” value ([16]; 63 g ai/ha) of the same molecule?
**A.** The value was 0.

**Q.** And the “Post-emerge Herbicidal Activity ECHCG” value ([16]; 250 g ai/ha)?
**A.** Its value is 20.

**Q.** And the “Post-emerge Herbicidal Activity AMBEL” value ([17]; 63 g ai/ha)?
**A.** The value was 50.

**Q.** What about the “Post-emerge Herbicidal Activity AMBEL” value ([17]; 250 g ai/ha) of the same molecule?
**A.** Its value is 60.

**Q.** And the “Post-emerge Herbicidal Activity IPOHE” value ([18]; 63 g ai/ha)?
**A.** The value was 75.

**Q.** And the “Post-emerge Herbicidal Activity IPOHE” value ([18]; 250 g ai/ha)?
**A.** Its value is 100.

**Q.** What about the “Post-emerge Herbicidal Activity ABUTH” value ([19]; 63 g ai/ha) of the same molecule?
**A.** Its value is 100.

**Q.** And the “Post-emerge Herbicidal Activity ABUTH” value ([19]; 250 g ai/ha)?
**A.** Its value is 100.

**Q.** What about the “Post-emerge Herbicidal Activity DIGSA” value ([20]; 63 g ai/ha) of the same molecule?
**A.** The value was 0.

**Q.** What about the “Post-emerge Herbicidal Activity DIGSA” value ([20]; 250 g ai/ha) of the same molecule?
**A.** Its value is 20.

**Q.** And the “Post-emerge Herbicidal Activity AMARE” value ([21]; 63 g ai/ha)?
**A.** The value was 90.

**Q.** What about the “Post-emerge Herbicidal Activity AMARE” value ([21]; 250 g ai/ha) of the same molecule?
**A.** The value was 100.

**Q.** What about the “Post-emerge Herbicidal Activity CHEAL” value ([22]; 63 g ai/ha) of the same molecule?
**A.** The value was 80.

**Q.** And the “Post-emerge Herbicidal Activity CHEAL” value ([22]; 250 g ai/ha)?
**A.** The value was 90.

**Q.** And the “Post-emerge Herbicidal Activity RICE (crop damage)” value ([23]; 63 g ai/ha)?
**A.** The value was 40.

**Q.** And the “Post-emerge Herbicidal Activity RICE (crop damage)” value ([23]; 250 g ai/ha)?
**A.** The value was 60.

**Q.** And the “Post-emerge Herbicidal Activity CORN (crop damage)” value ([24]; 63 g ai/ha)?
**A.** Its value is 10.

**Q.** What about the “Post-emerge Herbicidal Activity CORN (crop damage)” value ([24]; 250 g ai/ha) of the same molecule?
**A.** Its value is 25.
